Experimental data reported in US9562031B1, “Phenethyldihydrobenzodioxolones and methods of use” (Sequoia Sciences, Inc., priority 2015, dated 2017).

Legend:
Assay type in all cases: cell-based, human
Conditions in all cases: NCI 60-cell panel
A498 cells = assay: NCI-60 panel antiproliferation, A498
Procedure: (§1) Bifidenone and Compound 37 were tested for antiproliferation activity against the NCI-60 panel of cancer cell lines. COMPARE analysis was then conducted to compare the activity “fingerprint” of bifidenone to those of known classes of compounds (Zhou, B.-N., Hoch, J. M., Johnson, R. K., Mattern, M. R., Eng, W.-K., Ma, J., Hecht, S. M., Newman, D. J., Kingston, D. G. I., 2000. Use of COMPARE Analysis to Discover New Natural Product Drugs: Isolation of Camptothecin and 9-Methoxycamptothecin from a New Source. Journal of Natural Products 63, 1273-1276.).

A549 cells = assay: NCI-60 panel antiproliferation, A549
Procedure: as §1

ACHN cells = assay: NCI-60 panel antiproliferation, ACHN
Procedure: as §1

BT-549 cells = assay: NCI-60 panel antiproliferation, BT-549
Procedure: as §1

Caki-1 cells = assay: NCI-60 panel antiproliferation, Caki-1
Procedure: as §1

CCRF-CEM cells = assay: NCI-60 panel antiproliferation, CCRF-CEM
Procedure: as §1

COLO205 cells = assay: NCI-60 panel antiproliferation, COLO205
Procedure: as §1

DU-145 cells = assay: NCI-60 panel antiproliferation, DU-145
Procedure: as §1

EKVX cells = assay: NCI-60 panel antiproliferation, EKVX
Procedure: as §1

HCC-2998 cells = assay: NCI-60 panel antiproliferation, HCC-2998
Procedure: as §1

HCT-15 cells = assay: NCI-60 panel antiproliferation, HCT-15
Procedure: as §1

HCT-116 cells = assay: NCI-60 panel antiproliferation, HCT-116
Procedure: as §1

HL-60 cells = assay: NCI-60 panel antiproliferation, HL-60
Procedure: as §1

HOP-62 cells = assay: NCI-60 panel antiproliferation, HOP-62
Procedure: as §1

HOP-92 cells = assay: NCI-60 panel antiproliferation, HOP-92
Procedure: as §1

Hs578T cells = assay: NCI-60 panel antiproliferation, Hs578T
Procedure: as §1

HT29 cells = assay: NCI-60 panel antiproliferation, HT29
Procedure: as §1

IGR-OV1 cells = assay: NCI-60 panel antiproliferation, IGR-OV1
Procedure: as §1

K-562 cells = assay: NCI-60 panel antiproliferation, K-562
Procedure: as §1

KM12 cells = assay: NCI-60 panel antiproliferation, KM12
Procedure: as §1

LOX IMVI cells = assay: NCI-60 panel antiproliferation, LOX IMVI
Procedure: as §1

M14 cells = assay: NCI-60 panel antiproliferation, M14
Procedure: as §1

MALME-3M cells = assay: NCI-60 panel antiproliferation, MALME-3M
Procedure: as §1

MCF-7 cells = assay: NCI-60 panel antiproliferation, MCF-7
Procedure: as §1

MDA-MB-231 cells = assay: NCI-60 panel antiproliferation, MDA-MB-231
Procedure: as §1

MDA-MB-435 cells = assay: NCI-60 panel antiproliferation, MDA-MB-435
Procedure: as §1

MDA-MB-468 cells = assay: NCI-60 panel antiproliferation, MDA-MB-468
Procedure: as §1

MOLT-4 cells = assay: NCI-60 panel antiproliferation, MOLT-4
Procedure: as §1

NCI-ADR/RES cells = assay: NCI-60 panel antiproliferation, NCI-ADR/RES
Procedure: as §1

NCI-H23 cells = assay: NCI-60 panel antiproliferation, NCI-H23
Procedure: as §1

NCI-H226 cells = assay: NCI-60 panel antiproliferation, NCI-H226
Procedure: as §1

NCI-H322M cells = assay: NCI-60 panel antiproliferation, NCI-H322M
Procedure: as §1

NCI-H460 cells = assay: NCI-60 panel antiproliferation, NCI-H460
Procedure: as §1

NCI-H522 cells = assay: NCI-60 panel antiproliferation, NCI-H522
Procedure: as §1

OVCAR-3 cells = assay: NCI-60 panel antiproliferation, OVCAR-3
Procedure: as §1

OVCAR-4 cells = assay: NCI-60 panel antiproliferation, OVCAR-4
Procedure: as §1

OVCAR-5 cells = assay: NCI-60 panel antiproliferation, OVCAR-5
Procedure: as §1

OVCAR-8 cells = assay: NCI-60 panel antiproliferation, OVCAR-8
Procedure: as §1

PC-3 cells = assay: NCI-60 panel antiproliferation, PC-3
Procedure: as §1

RPMI-8226 cells = assay: NCI-60 panel antiproliferation, RPMI-8226
Procedure: as §1

RXF-393 cells = assay: NCI-60 panel antiproliferation, RXF-393
Procedure: as §1

SF-268 cells = assay: NCI-60 panel antiproliferation, SF-268
Procedure: as §1

SF-295 cells = assay: NCI-60 panel antiproliferation, SF-295
Procedure: as §1

SF-539 cells = assay: NCI-60 panel antiproliferation, SF-539
Procedure: as §1

SK-Mel-2 cells = assay: NCI-60 panel antiproliferation, SK-MEL-2
Procedure: as §1

SK-Mel-5 cells = assay: NCI-60 panel antiproliferation, SK-MEL-5
Procedure: as §1

SK-MEL-28 cells = assay: NCI-60 panel antiproliferation, SK-MEL-28
Procedure: as §1

SK-OV-3 cells = assay: NCI-60 panel antiproliferation, SK-OV-3
Procedure: as §1

SN12C cells = assay: NCI-60 panel antiproliferation, SN12C
Procedure: as §1

SNB-19 cells = assay: NCI-60 panel antiproliferation, SNB-19
Procedure: as §1

SNB-75 cells = assay: NCI-60 panel antiproliferation, SNB-75
Procedure: as §1

SR cells = assay: NCI-60 panel antiproliferation, SR
Procedure: as §1

SW-620 cells = assay: NCI-60 panel antiproliferation, SW-620
Procedure: as §1

T-47D cells = assay: NCI-60 panel antiproliferation, T-47D
Procedure: as §1

TK-10 cells = assay: NCI-60 panel antiproliferation, TK-10
Procedure: as §1

U251 cells = assay: NCI-60 panel antiproliferation, U251
Procedure: as §1

UACC-62 cells = assay: NCI-60 panel antiproliferation, UACC-62
Procedure: as §1

UACC-257 cells = assay: NCI-60 panel antiproliferation, UACC-257
Procedure: as §1

UO-31 cells = assay: NCI-60 panel antiproliferation, UO-31
Procedure: as §1

786-0 cells = assay: NCI-60 panel antiproliferation, 786-0
Procedure: as §1

Q: Which results are given for C=CC[C@H]1C[C@]2([C@@H](C)Cc3ccc(OC)c(OC)c3)OCOC2=CC1=O [bifidenone, Bifidenone]?
A: IC50 (A498 cells): 460 nM; IC50 (A549 cells): 260 nM; IC50 (ACHN cells): 850 nM; IC50 (BT-549 cells): 180 nM; IC50 (Caki-1 cells): 100 nM; IC50 (CCRF-CEM cells): 150 nM; IC50 (COLO205 cells): 400 nM; IC50 (DU-145 cells): 840 nM; IC50 (EKVX cells): 280 nM; IC50 (HCC-2998 cells): 1410 nM; IC50 (HCT-15 cells): 230 nM; IC50 (HCT-116 cells): 490 nM; IC50 (HL-60 cells): 120 nM; IC50 (HOP-62 cells): 320 nM; IC50 (HOP-92 cells): 240 nM; IC50 (Hs578T cells): 210 nM; IC50 (HT29 cells): 310 nM; IC50 (IGR-OV1 cells): 420 nM; IC50 (K-562 cells): 180 nM; IC50 (KM12 cells): 320 nM; IC50 (LOX IMVI cells): 390 nM; IC50 (M14 cells): 200 nM; IC50 (MALME-3M cells): 90 nM; IC50 (MCF-7 cells): 170 nM; IC50 (MDA-MB-231 cells): 260 nM; IC50 (MDA-MB-435 cells): 70 nM; IC50 (MDA-MB-468 cells): 300 nM; IC50 (MOLT-4 cells): 170 nM; IC50 (NCI-ADR/RES cells): 170 nM; IC50 (NCI-H23 cells): 610 nM; IC50 (NCI-H226 cells): 810 nM; IC50 (NCI-H322M cells): 460 nM; IC50 (NCI-H460 cells): 320 nM; IC50 (NCI-H522 cells): 150 nM; IC50 (OVCAR-3 cells): 170 nM; IC50 (OVCAR-4 cells): 290 nM; IC50 (OVCAR-5 cells): 520 nM; IC50 (OVCAR-8 cells): 470 nM; IC50 (PC-3 cells): 190 nM; IC50 (RPMI-8226 cells): 250 nM; IC50 (RXF-393 cells): 780 nM; IC50 (SF-268 cells): 220 nM; IC50 (SF-295 cells): 410 nM; IC50 (SF-539 cells): 260 nM; IC50 (SK-Mel-2 cells): 130 nM; IC50 (SK-Mel-5 cells): 250 nM; IC50 (SK-MEL-28 cells): 130 nM; IC50 (SK-OV-3 cells): 270 nM; IC50 (SN12C cells): 330 nM; IC50 (SNB-19 cells): 300 nM; IC50 (SNB-75 cells): 270 nM; IC50 (SR cells): 80 nM; IC50 (SW-620 cells): 130 nM; IC50 (T-47D cells): 250 nM; IC50 (TK-10 cells): 330 nM; IC50 (U251 cells): 610 nM; IC50 (UACC-62 cells): 140 nM; IC50 (UACC-257 cells): 160 nM; IC50 (UO-31 cells): 570 nM; IC50 (786-0 cells): 320 nM
